Experimental findings from US8063220B2, “Sulfonyl-quinoline derivatives” (Richter Gedeon Nyrt., priority 2007, dated 2011) are described below.

One experiment deals with T1, rat mGluR5 (Rattus norvegicus, UniProt P31424).
T1 construct: Rat cerebro-cortical membrane preparation was used; from tissue; host or cells: rat cerebral cortex (membrane preparation)
Nature of the experiment: MGluR5 receptor binding test ([3H]-M-MPEP displacement, rat cerebro-cortical membrane preparation). The following applies: rat mGluR5, [3H]-M-MPEP 2 nM; read-out: mGlu5 Ki. As for the experimental part:
Rat cerebro-cortical membrane preparation was used to determine the binding characteristics of reference compounds and novel compounds to the rat mGluR5. The A18 cell line expressing hmGluR5a (purchased from Euroscreen) was used to determine binding characteristics of the chemical compounds to the human mGluR5a receptor. [3H]-M-MPEP (2 nM) was used as radioligand. The nonspecific binding was determined in the presence of 10 μM M-MPEP.

In a further experiment the target is T2, rat mGluR1 (Rattus norvegicus, UniProt P23385).
T2 construct: rat cerebellar membrane preparation was used; from tissue; host or cells: rat cerebellum (membrane preparation)
The experiment in a line: MGluR1 receptor binding test ([3H]R214127 displacement, rat cerebellar membrane preparation). Conditions: rat mGluR1, [3H]R214127 3 nM; read-out: mGlu1 Ki. The protocol:
MGluR1 receptor binding tests were performed according to modified method of Lavreysen et al. (Mol. Pharm., 2003, 63, 1082). Based on the high homology between the human and rat mGluR1 receptors, rat cerebellar membrane preparation was used to determine the binding characteristics of reference compounds and novel compounds to the rat mGluR1. [3H]R214127 (3 nM) was used as radioligand and the nonspecific binding was determined in the presence of 1 μM of R214127.
IC-50 values were determined from displacement curves by nonlinear regression analysis and were converted to Ki values using the equation method of Cheng and Prusoff (Biochem. Pharmacol., 1973, 22, 3099).

T2 sequence (P23385 19-1199): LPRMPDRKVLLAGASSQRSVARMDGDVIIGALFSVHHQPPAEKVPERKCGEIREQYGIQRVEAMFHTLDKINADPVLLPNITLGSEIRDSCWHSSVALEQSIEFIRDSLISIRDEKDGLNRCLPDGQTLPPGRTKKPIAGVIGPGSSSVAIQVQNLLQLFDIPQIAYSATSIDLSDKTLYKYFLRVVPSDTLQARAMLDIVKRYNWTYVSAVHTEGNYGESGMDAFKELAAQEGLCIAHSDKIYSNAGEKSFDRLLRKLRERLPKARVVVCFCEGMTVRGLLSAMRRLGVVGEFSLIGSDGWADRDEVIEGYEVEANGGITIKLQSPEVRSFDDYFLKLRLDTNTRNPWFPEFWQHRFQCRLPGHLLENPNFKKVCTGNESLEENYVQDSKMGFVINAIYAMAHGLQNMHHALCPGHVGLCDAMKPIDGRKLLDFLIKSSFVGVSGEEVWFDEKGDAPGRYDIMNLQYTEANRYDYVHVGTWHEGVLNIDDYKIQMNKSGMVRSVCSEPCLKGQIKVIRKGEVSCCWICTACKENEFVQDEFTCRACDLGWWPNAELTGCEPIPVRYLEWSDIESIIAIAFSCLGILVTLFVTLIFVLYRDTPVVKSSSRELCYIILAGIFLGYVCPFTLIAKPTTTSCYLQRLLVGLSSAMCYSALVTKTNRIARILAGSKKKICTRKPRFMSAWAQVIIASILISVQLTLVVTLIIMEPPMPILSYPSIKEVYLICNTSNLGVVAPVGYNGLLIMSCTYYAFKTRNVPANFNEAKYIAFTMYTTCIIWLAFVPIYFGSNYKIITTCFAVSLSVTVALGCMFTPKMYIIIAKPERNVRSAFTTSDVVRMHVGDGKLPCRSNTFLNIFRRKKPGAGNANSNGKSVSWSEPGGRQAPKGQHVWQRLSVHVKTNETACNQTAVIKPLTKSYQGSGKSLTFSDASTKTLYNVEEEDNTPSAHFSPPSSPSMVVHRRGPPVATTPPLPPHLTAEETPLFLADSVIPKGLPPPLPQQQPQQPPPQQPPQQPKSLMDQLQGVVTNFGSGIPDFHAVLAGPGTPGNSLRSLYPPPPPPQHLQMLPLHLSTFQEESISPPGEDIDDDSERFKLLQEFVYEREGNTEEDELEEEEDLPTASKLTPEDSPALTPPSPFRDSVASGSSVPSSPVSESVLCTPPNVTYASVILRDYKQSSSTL
T1 sequence (P31424 21-1203): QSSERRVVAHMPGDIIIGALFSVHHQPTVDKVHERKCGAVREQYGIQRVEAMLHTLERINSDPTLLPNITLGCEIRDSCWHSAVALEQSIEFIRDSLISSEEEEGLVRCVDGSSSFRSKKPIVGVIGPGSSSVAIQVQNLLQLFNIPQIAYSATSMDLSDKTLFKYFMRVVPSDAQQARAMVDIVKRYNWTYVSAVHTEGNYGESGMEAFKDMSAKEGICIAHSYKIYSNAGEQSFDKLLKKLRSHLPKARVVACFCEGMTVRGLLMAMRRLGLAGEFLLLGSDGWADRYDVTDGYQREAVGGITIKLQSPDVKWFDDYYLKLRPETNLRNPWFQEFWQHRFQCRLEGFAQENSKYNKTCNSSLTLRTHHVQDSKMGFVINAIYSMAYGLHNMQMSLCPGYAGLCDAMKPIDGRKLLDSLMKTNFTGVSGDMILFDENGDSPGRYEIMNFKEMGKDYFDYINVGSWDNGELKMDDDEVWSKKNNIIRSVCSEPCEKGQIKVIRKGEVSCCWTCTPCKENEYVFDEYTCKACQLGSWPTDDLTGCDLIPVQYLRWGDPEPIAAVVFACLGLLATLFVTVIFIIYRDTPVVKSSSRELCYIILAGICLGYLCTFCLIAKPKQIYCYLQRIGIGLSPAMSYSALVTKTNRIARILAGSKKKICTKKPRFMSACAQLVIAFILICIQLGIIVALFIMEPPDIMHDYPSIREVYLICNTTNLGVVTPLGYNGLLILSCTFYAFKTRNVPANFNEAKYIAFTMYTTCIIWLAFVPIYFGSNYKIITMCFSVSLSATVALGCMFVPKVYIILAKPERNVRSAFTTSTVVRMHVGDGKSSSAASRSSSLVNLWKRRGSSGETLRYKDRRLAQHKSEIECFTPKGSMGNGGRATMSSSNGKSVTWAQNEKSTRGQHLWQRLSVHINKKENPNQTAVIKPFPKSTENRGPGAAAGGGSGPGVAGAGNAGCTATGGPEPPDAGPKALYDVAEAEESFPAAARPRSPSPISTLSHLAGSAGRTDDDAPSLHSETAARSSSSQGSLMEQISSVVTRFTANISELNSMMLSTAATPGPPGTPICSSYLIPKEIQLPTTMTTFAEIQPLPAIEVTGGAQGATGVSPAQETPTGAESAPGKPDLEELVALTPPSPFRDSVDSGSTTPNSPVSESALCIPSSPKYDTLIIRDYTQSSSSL

One may read the Ki as the dissociation constant of the complex between target and ligand, obtained from inhibition or displacement. `Cc1ccc(S(=O)(=O)c2cnc3ccccc3c2-c2ccc(Cl)cc2)cc1` [Compound 1, 4-(4-chloro-phenyl)-3-(4-methyl-benzenesulfonyl)-quinoline]: the Ki was less than 200 nM on rat mGluR5 and 200 to 500 nM on rat mGluR1.
The like results for `O=S(=O)(c1ccc(F)cc1)c1cnc2ccc(Cl)cc2c1-c1ccc(Cl)cc1` [Compound 2] were, in that order, more than 500 nM and more than 500 nM.
For the compound `O=S(=O)(c1ccc(F)cc1)c1cnc2ccc(Cl)cc2c1-c1cccc(Cl)c1` [Compound 3], the Ki at rat mGluR5 and at rat mGluR1 was more than 500 nM each time.
Regarding `O=S(=O)(c1ccc(Cl)cc1)c1cnc2cc(Cl)ccc2c1-c1ccc(F)cc1` [Compound 4, 7-chloro-3-(4-chloro-benzenesulfonyl)-4-(4-fluoro-phenyl)-quinoline], the Ki on rat mGluR5 is less than 200 nM; on rat mGluR1 it was 200 to 500 nM.
The like results for `O=S(=O)(c1ccc(Cl)cc1)c1cnc2c(Cl)cccc2c1-c1ccc(Cl)cc1` [Compound 5] were, in that order, 200 to 500 nM and more than 500 nM.
As for `O=S(=O)(c1ccc(Cl)cc1)c1cnc2c(Cl)cccc2c1-c1cccc(Cl)c1` [Compound 6], the Ki at rat mGluR5 was 200 to 500 nM; on rat mGluR1, more than 500 nM.
Consider `O=S(=O)(c1ccc(Cl)c(Cl)c1)c1cnc2c(Cl)cccc2c1-c1cccc(Cl)c1` [Compound 7], for which the Ki at rat mGluR5 and on rat mGluR1 was less than 200 nM each time.
Take `O=S(=O)(c1ccc(Cl)cc1)c1cnc2ccc(F)cc2c1-c1cccc(Cl)c1` [Compound 8]: the Ki at rat mGluR5 and on rat mGluR1 was more than 500 nM throughout.
Take `O=S(=O)(c1ccc(F)cc1)c1cnc2cc(F)ccc2c1-c1cccc(F)c1` [Compound 9, 7-fluoro-3-(4-fluoro-benzenesulfonyl)-4-(3-fluoro-phenyl)-quinoline]: the Ki at rat mGluR5 is less than 200 nM; at rat mGluR1 it was 200 to 500 nM.
The like results for `COc1ccc(-c2c(S(=O)(=O)c3ccc(F)cc3)cnc3cc(F)ccc23)cc1` [Compound 10] were, in that order, 200 to 500 nM and more than 500 nM.
Regarding `COc1ccc(S(=O)(=O)c2cnc3cc(F)ccc3c2-c2ccc(Cl)cc2)cc1` [Compound 11], the Ki on rat mGluR5 is less than 200 nM; on rat mGluR1 it was more than 500 nM.
Turning to `COc1ccc(S(=O)(=O)c2cnc3cc(F)ccc3c2-c2cccc(F)c2)cc1` [Compound 12], the Ki at rat mGluR5 was 200 to 500 nM; at rat mGluR1 it was more than 500 nM.
`COc1ccc(-c2c(S(=O)(=O)c3ccc(OC)cc3)cnc3cc(F)ccc23)cc1` [Compound 13]: the Ki is less than 200 nM at rat mGluR5 and more than 500 nM at rat mGluR1.
The like results for `COc1ccc(S(=O)(=O)c2cnc3cc(F)ccc3c2-c2ccc(F)cc2)cc1` [Compound 14] were, in that order, 200 to 500 nM and more than 500 nM.
As to `O=S(=O)(c1cccc(F)c1)c1cnc2cc(F)ccc2c1-c1cccc(F)c1` [Compound 15], the results for the inhibition constant Ki at rat mGluR5 and on rat mGluR1 were less than 200 nM and 200 to 500 nM, respectively.
On to `O=S(=O)(c1cccc(F)c1)c1cnc2cc(F)ccc2c1-c1ccc(F)cc1` [Compound 16], for which the Ki was less than 200 nM on rat mGluR5 and more than 500 nM on rat mGluR1.
The like results for `Cc1ccc(S(=O)(=O)c2cnc3cc(F)ccc3c2-c2cccc(Cl)c2)cc1C` [Compound 17, 4-(3-chloro-phenyl)-3-(3,4-dimethyl-benzenesulfonyl)-7-fluoro-quinoline] were, in that order, less than 200 nM and more than 500 nM.
The like results for `Cc1ccc(S(=O)(=O)c2cnc3cc(F)ccc3c2-c2cccc(F)c2)cc1C` [Compound 18] were, in that order, less than 200 nM and more than 500 nM.
As to `COc1cccc(-c2c(S(=O)(=O)c3ccc(C)c(C)c3)cnc3cc(F)ccc23)c1` [Compound 19], the Ki on rat mGluR5 was less than 200 nM; on rat mGluR1, more than 500 nM.
The like results for `O=S(=O)(c1ccc(F)cc1)c1cnc2c(F)cccc2c1-c1cccc(Cl)c1` [Compound 20] were, in that order, less than 200 nM and less than 200 nM.
Regarding `O=S(=O)(c1ccc(F)cc1)c1cnc2c(F)cccc2c1-c1ccc(Cl)cc1` [Compound 21], the Ki on rat mGluR5 was less than 200 nM; on rat mGluR1, 200 to 500 nM.
Consider `O=S(=O)(c1ccc(F)cc1)c1cnc2c(F)cccc2c1-c1cccc(F)c1` [Compound 22], for which the Ki at rat mGluR5 is less than 200 nM; on rat mGluR1, 200 to 500 nM.
The like results for `COc1cccc(-c2c(S(=O)(=O)c3ccc(F)cc3)cnc3c(F)cccc23)c1` [Compound 23] were, in that order, less than 200 nM and more than 500 nM.
For the compound `O=S(=O)(c1ccc(F)cc1)c1cnc2ccc(F)cc2c1-c1cccc(Cl)c1` [Compound 24], the Ki on rat mGluR5 and on rat mGluR1 was more than 500 nM each time.
As to `O=S(=O)(c1ccc(F)cc1)c1cnc2ccc(F)cc2c1-c1ccc(Cl)cc1` [Compound 25], the values for the Ki at rat mGluR5 and on rat mGluR1 were 200 to 500 nM and more than 500 nM, respectively.
For `O=S(=O)(c1ccc(F)cc1)c1cnc2ccc(F)cc2c1-c1cccc(F)c1` [Compound 26], the results for the Ki at rat mGluR5 and at rat mGluR1 were 200 to 500 nM and more than 500 nM, respectively.
On to `COc1ccc(-c2c(S(=O)(=O)c3ccc(F)cc3)cnc3ccc(F)cc23)cc1` [Compound 27], for which the Ki at rat mGluR5 and at rat mGluR1 was more than 500 nM throughout.
In the case of `O=S(=O)(c1ccc(F)cc1)c1cnc2ccc(F)cc2c1-c1ccc(F)cc1` [Compound 28], the Ki at rat mGluR5 and at rat mGluR1 was more than 500 nM each time.
Take `COc1ccc(S(=O)(=O)c2cnc3ccc(F)cc3c2-c2ccc(Cl)cc2)cc1` [Compound 29]: the Ki at rat mGluR5 was less than 200 nM; on rat mGluR1, more than 500 nM.
The like results for `COc1ccc(S(=O)(=O)c2cnc3ccc(F)cc3c2-c2cccc(F)c2)cc1` [Compound 30] were, in that order, 200 to 500 nM and more than 500 nM.
The like results for `O=S(=O)(c1ccc(Cl)cc1)c1cnc2ccc(F)cc2c1-c1ccc(F)cc1` [Compound 31] were, in that order, more than 500 nM and more than 500 nM.
In the case of `O=S(=O)(c1cccc(F)c1)c1cnc2ccc(F)cc2c1-c1ccc(Cl)cc1` [Compound 32], the Ki on rat mGluR5 and at rat mGluR1 was more than 500 nM each time.
For the compound `Cc1ccc(S(=O)(=O)c2cnc3ccc(F)cc3c2-c2ccc(Cl)cc2)cc1C` [Compound 33], the Ki on rat mGluR5 was less than 200 nM; at rat mGluR1, more than 500 nM.
Consider `COc1cccc(-c2c(S(=O)(=O)c3cccc(Cl)c3)cnc3ccc(F)cc23)c1` [Compound 34], for which the Ki at rat mGluR5 and on rat mGluR1 was more than 500 nM throughout.
On to `O=S(=O)(c1cc(F)cc(F)c1)c1cnc2cc(F)ccc2c1-c1ccc(Cl)cc1` [Compound 35, 4-(4-chloro-phenyl)-3-(3,5-difluoro-benzenesulfonyl)-7-fluoro-quinoline], for which the inhibition constant (Ki) at rat mGluR5 is less than 200 nM; on rat mGluR1, more than 500 nM.
The like results for `O=S(=O)(c1cc(F)cc(F)c1)c1cnc2cc(F)ccc2c1-c1ccc(F)cc1` [Compound 36] were, in that order, less than 200 nM and more than 500 nM.
The like results for `N#Cc1cccc(S(=O)(=O)c2cnc3cc(F)ccc3c2-c2ccc(Cl)cc2)c1` [Compound 37] were, in that order, less than 200 nM and 200 to 500 nM.
The like results for `N#Cc1cccc(S(=O)(=O)c2cnc3cc(F)ccc3c2-c2cccc(F)c2)c1` [Compound 38] were, in that order, less than 200 nM and 200 to 500 nM.
Turning to `N#Cc1cccc(S(=O)(=O)c2cnc3cc(F)ccc3c2-c2ccc(F)cc2)c1` [Compound 39], the inhibition constant Ki was less than 200 nM at rat mGluR5 and 200 to 500 nM on rat mGluR1.
The like results for `O=S(=O)(c1ccc(F)cc1)c1cnc2cc(F)ccc2c1-c1ccc(F)cc1` [Compound 40] were, in that order, less than 200 nM and more than 500 nM.
The like results for `O=S(=O)(c1cccc(F)c1)c1cnc2cc(F)ccc2c1-c1ccc(Cl)cc1` [Compound 41] were, in that order, less than 200 nM and more than 500 nM.
The like results for `COc1ccc(-c2c(S(=O)(=O)c3cccc(F)c3)cnc3cc(F)ccc23)cc1` [Compound 42] were, in that order, 200 to 500 nM and more than 500 nM.
For the compound `COc1cccc(S(=O)(=O)c2cnc3cc(F)ccc3c2-c2cccc(Cl)c2)c1` [Compound 43], the Ki at rat mGluR5 is less than 200 nM; on rat mGluR1, more than 500 nM.
For `COc1cccc(S(=O)(=O)c2cnc3cc(F)ccc3c2-c2ccc(F)cc2)c1` [Compound 44], the Ki on rat mGluR5 is less than 200 nM; on rat mGluR1, more than 500 nM.
For `Cc1ccc(S(=O)(=O)c2cnc3cc(F)ccc3c2-c2ccc(Cl)cc2)cc1C` [Compound 45], the Ki on rat mGluR5 is less than 200 nM; at rat mGluR1, more than 500 nM.
As to `Cc1ccc(S(=O)(=O)c2cnc3cc(F)ccc3c2-c2ccc(F)cc2)cc1C` [Compound 46], the values for the Ki at rat mGluR5 and on rat mGluR1 were less than 200 nM and more than 500 nM, respectively.
The like results for `COc1ccc(S(=O)(=O)c2cnc3cc(F)ccc3c2-c2cccc(Cl)c2)cc1Cl` [Compound 47] were, in that order, less than 200 nM and 200 to 500 nM.
`COc1ccc(S(=O)(=O)c2cnc3cc(F)ccc3c2-c2cccc(F)c2)cc1Cl` [Compound 48]: the Ki is less than 200 nM at rat mGluR5 and more than 500 nM at rat mGluR1.
The like results for `COc1ccc(S(=O)(=O)c2cnc3cc(F)ccc3c2-c2ccc(F)cc2)cc1Cl` [Compound 49] were, in that order, less than 200 nM and more than 500 nM.
The like results for `O=S(=O)(c1cc(Cl)cc(Cl)c1)c1cnc2c(F)cccc2c1-c1ccc(F)cc1` [Compound 50] were, in that order, less than 200 nM and less than 200 nM.
For `O=S(=O)(c1cc(Cl)cc(Cl)c1)c1cnc2cc(F)ccc2c1-c1ccc(F)cc1` [Compound 83], on rat mGluR1, the Ki lay within 200 to 500 nM.
